In patent US20230085307A1, “PYRIDAZINONE COMPOUND AND HERBICIDE” (NISSAN CHEMICAL CORPORATION, priority 2019, published 2023):

Each compound was assayed on Chinese sprangletop (assay: Test Example 3: herbicidal effect by foliage application, Wagner pot (Table 18, symbol D)). Conditions: 320 g/ha.
Assay type: in vivo, chinese sprangletop (Leptochloa chinensis)
How it was run: (§1)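 Plants were sown in alluvial soil held under 0.1–0.5 cm standing water and grown 14 days in a greenhouse at 25–30 °C. An emulsifiable formulation, water-diluted to the set dose, was then sprayed onto the foliage, and effects were scored three weeks later using previously defined criteria.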
CCCC(=O)Oc1c(C)nn(C)c(=O)c1-c1c(-c2ccc(C(C)C)cc2)sc2cc(F)c(F)cc12 [5-006] was tested, and the “herbicidal effect on Chinese sprangletop (D)” value was 1 (Herbicidal rate of 5% or more and less than 20%).
For Cc1nn(C)c(=O)c(-c2c(-c3ccc(C#N)cc3)sc3cc(Cl)c(Cl)cc23)c1O [5-049], the “herbicidal effect on Chinese sprangletop (D)” value was 0 (Herbicidal rate of 5% or less (almost no effect)).

The compounds below were run on southern crabgrass (assay: Test Example 5: herbicidal effect by foliage application, plastic box (Table 20, symbol F)). Conditions: amount of applied herbicide 320 g/ha; foliage application after 14-day growth; evaluated three weeks after application.
Assay type: in vivo, southern crabgrass (Digitaria ciliaris)
How it was run: (§2)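 Foliar spray test: emulsion formulation diluted in water to a set application rate, sprayed onto 14-day-old plants raised in diluvial soil at 25° C to 30° C under glass. Both herbicidal effect and crop effect rated visually three weeks later.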
For CCCC(=O)Oc1c(C)nn(C)c(=O)c1-c1c(-c2ccc(C(C)C)cc2)sc2cc(F)c(F)cc12 [5-006], the “Herbicidal effect by foliage application, F: southern crabgrass” value was 0 (Herbicidal rate of 5% or less (almost no effect)).
Cc1nn(C)c(=O)c(-c2c(-c3ccc(C#N)cc3)sc3cc(Cl)c(Cl)cc23)c1O [5-049] was tested, and the “Herbicidal effect by foliage application, F: southern crabgrass” value was 0 (Herbicidal rate of 5% or less (almost no effect)).

The compounds below were run on green foxtail (assay: Test Example 5: herbicidal effect by foliage application, plastic box (Table 20, symbol G)). Conditions: amount of applied herbicide 320 g/ha; foliage application after 14-day growth; evaluated three weeks after application.
Assay type: in vivo, green foxtail (Setaria viridis)
How it was run: as §2
With CCCC(=O)Oc1c(C)nn(C)c(=O)c1-c1c(-c2ccc(C(C)C)cc2)sc2cc(F)c(F)cc12 [5-006] the “Herbicidal effect by foliage application, G: green foxtail” value was 0 (Herbicidal rate of 5% or less (almost no effect)).
For Cc1nn(C)c(=O)c(-c2c(-c3ccc(C#N)cc3)sc3cc(Cl)c(Cl)cc23)c1O [5-049], the “Herbicidal effect by foliage application, G: green foxtail” value was 2 (Herbicidal rate of 20% or more and less than 40%).

What follows are compounds tested on rice flat sedge (assay: Test Example 3: herbicidal effect by foliage application, Wagner pot (Table 18, symbol E)). Conditions: 320 g/ha.
Assay type: in vivo, rice flat sedge (Cyperus iria)
How it was run: as §1
In the case of CCCC(=O)Oc1c(C)nn(C)c(=O)c1-c1c(-c2ccc(C(C)C)cc2)sc2cc(F)c(F)cc12 [5-006], the “herbicidal effect on rice flat sedge (E)” value is reported as 3 (Herbicidal rate of 40% or more and less than 70%).
In the case of Cc1nn(C)c(=O)c(-c2c(-c3ccc(C#N)cc3)sc3cc(Cl)c(Cl)cc23)c1O [5-049], the “herbicidal effect on rice flat sedge (E)” value is reported as 0 (Herbicidal rate of 5% or less (almost no effect)).

The compounds below were run on windgrass (assay: Test Example 5: herbicidal effect by foliage application, plastic box (Table 20, symbol L)). Conditions: amount of applied herbicide 320 g/ha; foliage application after 14-day growth; evaluated three weeks after application.
Assay type: in vivo, windgrass (Apera spica-venti)
How it was run: as §2
In the case of CCCC(=O)Oc1c(C)nn(C)c(=O)c1-c1c(-c2ccc(C(C)C)cc2)sc2cc(F)c(F)cc12 [5-006], the “Herbicidal effect by foliage application, L: windgrass” value is reported as 0 (Herbicidal rate of 5% or less (almost no effect)).
Cc1nn(C)c(=O)c(-c2c(-c3ccc(C#N)cc3)sc3cc(Cl)c(Cl)cc23)c1O [5-049] was tested, and the “Herbicidal effect by foliage application, L: windgrass” value was 3 (Herbicidal rate of 40% or more and less than 70%).

These compounds were tested on wild oat (assay: Test Example 5: herbicidal effect by foliage application, plastic box (Table 20, symbol I)). Conditions: amount of applied herbicide 320 g/ha; foliage application after 14-day growth; evaluated three weeks after application.
Assay type: in vivo, wild oat (Avena fatua)
How it was run: as §2
CCCC(=O)Oc1c(C)nn(C)c(=O)c1-c1c(-c2ccc(C(C)C)cc2)sc2cc(F)c(F)cc12 [5-006] was tested, and the “Herbicidal effect by foliage application, I: wild oat” value was 0 (Herbicidal rate of 5% or less (almost no effect)).
Cc1nn(C)c(=O)c(-c2c(-c3ccc(C#N)cc3)sc3cc(Cl)c(Cl)cc23)c1O [5-049] was tested, and the “Herbicidal effect by foliage application, I: wild oat” value was 0 (Herbicidal rate of 5% or less (almost no effect)).

What follows are compounds tested on velvetleaf (assay: Test Example 5: herbicidal effect by foliage application, plastic box (Table 20, symbol M)). Conditions: amount of applied herbicide 320 g/ha; foliage application after 14-day growth; evaluated three weeks after application.
Assay type: in vivo, velvetleaf (Abutilon theophrasti)
How it was run: as §2
CCCC(=O)Oc1c(C)nn(C)c(=O)c1-c1c(-c2ccc(C(C)C)cc2)sc2cc(F)c(F)cc12 [5-006] was tested, and the “Herbicidal effect by foliage application, M: velvetleaf” value was 3 (Herbicidal rate of 40% or more and less than 70%).
For Cc1nn(C)c(=O)c(-c2c(-c3ccc(C#N)cc3)sc3cc(Cl)c(Cl)cc23)c1O [5-049], the “Herbicidal effect by foliage application, M: velvetleaf” value was 1 (Herbicidal rate of 5% or more and less than 20%).

The compounds below were run on blackgrass (assay: Test Example 5: herbicidal effect by foliage application, plastic box (Table 20, symbol J)). Conditions: amount of applied herbicide 320 g/ha; foliage application after 14-day growth; evaluated three weeks after application.
Assay type: in vivo, blackgrass (Alopecurus myosuroides)
How it was run: as §2
In the case of CCCC(=O)Oc1c(C)nn(C)c(=O)c1-c1c(-c2ccc(C(C)C)cc2)sc2cc(F)c(F)cc12 [5-006], the “Herbicidal effect by foliage application, J: blackgrass” value is reported as 0 (Herbicidal rate of 5% or less (almost no effect)).
Cc1nn(C)c(=O)c(-c2c(-c3ccc(C#N)cc3)sc3cc(Cl)c(Cl)cc23)c1O [5-049] was tested, and the “Herbicidal effect by foliage application, J: blackgrass” value was 0 (Herbicidal rate of 5% or less (almost no effect)).

The compounds below were run on barnyard grass (assay: Test Example 3: herbicidal effect by foliage application, Wagner pot (Table 18, symbol H)). Conditions: 320 g/ha.
Assay type: in vivo, barnyard grass (Echinochloa crus-galli)
How it was run: as §1
In the case of CCCC(=O)Oc1c(C)nn(C)c(=O)c1-c1c(-c2ccc(C(C)C)cc2)sc2cc(F)c(F)cc12 [5-006], the “herbicidal effect on barnyard grass (H)” value is reported as 4 (Herbicidal rate of 70% or more and less than 90%).
In the case of Cc1nn(C)c(=O)c(-c2c(-c3ccc(C#N)cc3)sc3cc(Cl)c(Cl)cc23)c1O [5-049], the “herbicidal effect on barnyard grass (H)” value is reported as 3 (Herbicidal rate of 40% or more and less than 70%).

These compounds were tested on redroot pigweed (assay: Test Example 5: herbicidal effect by foliage application, plastic box (Table 20, symbol N)). Conditions: amount of applied herbicide 320 g/ha; foliage application after 14-day growth; evaluated three weeks after application.
Assay type: in vivo, redroot pigweed (Amaranthus retroflexus)
How it was run: as §2
For CCCC(=O)Oc1c(C)nn(C)c(=O)c1-c1c(-c2ccc(C(C)C)cc2)sc2cc(F)c(F)cc12 [5-006], the “Herbicidal effect by foliage application, N: redroot pigweed” value was 3 (Herbicidal rate of 40% or more and less than 70%).
For Cc1nn(C)c(=O)c(-c2c(-c3ccc(C#N)cc3)sc3cc(Cl)c(Cl)cc23)c1O [5-049], the “Herbicidal effect by foliage application, N: redroot pigweed” value was 5 (Herbicidal rate of 90% or more (almost completely withered)).

The compounds below were run on lambsquarters (assay: Test Example 5: herbicidal effect by foliage application, plastic box (Table 20, symbol O)). Conditions: amount of applied herbicide 320 g/ha; foliage application after 14-day growth; evaluated three weeks after application.
Assay type: in vivo, lambsquarters (Chenopodium album)
How it was run: as §2
With CCCC(=O)Oc1c(C)nn(C)c(=O)c1-c1c(-c2ccc(C(C)C)cc2)sc2cc(F)c(F)cc12 [5-006] the “Herbicidal effect by foliage application, O: lambsquarters” value was 3 (Herbicidal rate of 40% or more and less than 70%).
For Cc1nn(C)c(=O)c(-c2c(-c3ccc(C#N)cc3)sc3cc(Cl)c(Cl)cc23)c1O [5-049], the “Herbicidal effect by foliage application, O: lambsquarters” value was 4 (Herbicidal rate of 70% or more and less than 90%).

The compounds below were run on chickweed (assay: Test Example 5: herbicidal effect by foliage application, plastic box (Table 20, symbol P)). Conditions: amount of applied herbicide 320 g/ha; foliage application after 14-day growth; evaluated three weeks after application.
Assay type: in vivo, common chickweed (Stellaria media)
How it was run: as §2
In the case of CCCC(=O)Oc1c(C)nn(C)c(=O)c1-c1c(-c2ccc(C(C)C)cc2)sc2cc(F)c(F)cc12 [5-006], the “Herbicidal effect by foliage application, P: chickweed” value is reported as 4 (Herbicidal rate of 70% or more and less than 90%).
In the case of Cc1nn(C)c(=O)c(-c2c(-c3ccc(C#N)cc3)sc3cc(Cl)c(Cl)cc23)c1O [5-049], the “Herbicidal effect by foliage application, P: chickweed” value is reported as 0 (Herbicidal rate of 5% or less (almost no effect)).

What follows are compounds tested on barnyard grass (assay: Test Example 5: herbicidal effect by foliage application, plastic box (Table 20, symbol H)). Conditions: amount of applied herbicide 320 g/ha; foliage application after 14-day growth; evaluated three weeks after application.
Assay type: in vivo, barnyard grass (Echinochloa crus-galli)
How it was run: as §2
In the case of CCCC(=O)Oc1c(C)nn(C)c(=O)c1-c1c(-c2ccc(C(C)C)cc2)sc2cc(F)c(F)cc12 [5-006], the “Herbicidal effect by foliage application, H: barnyard grass” value is reported as 0 (Herbicidal rate of 5% or less (almost no effect)).
For Cc1nn(C)c(=O)c(-c2c(-c3ccc(C#N)cc3)sc3cc(Cl)c(Cl)cc23)c1O [5-049], the “Herbicidal effect by foliage application, H: barnyard grass” value was 0 (Herbicidal rate of 5% or less (almost no effect)).

Each compound was assayed on persian speedwell (assay: Test Example 5: herbicidal effect by foliage application, plastic box (Table 20, symbol R)). Conditions: amount of applied herbicide 320 g/ha; foliage application after 14-day growth; evaluated three weeks after application.
Assay type: in vivo, Persian speedwell (Veronica persica)
How it was run: as §2
With CCCC(=O)Oc1c(C)nn(C)c(=O)c1-c1c(-c2ccc(C(C)C)cc2)sc2cc(F)c(F)cc12 [5-006] the “Herbicidal effect by foliage application, R: persian speedwell” value was 1 (Herbicidal rate of 5% or more and less than 20%).
Cc1nn(C)c(=O)c(-c2c(-c3ccc(C#N)cc3)sc3cc(Cl)c(Cl)cc23)c1O [5-049] was tested, and the “Herbicidal effect by foliage application, R: persian speedwell” value was 0 (Herbicidal rate of 5% or less (almost no effect)).

The compounds below were run on Italian ryegrass (assay: Test Example 5: herbicidal effect by foliage application, plastic box (Table 20, symbol K)). Conditions: amount of applied herbicide 320 g/ha; foliage application after 14-day growth; evaluated three weeks after application.
Assay type: in vivo, Italian ryegrass (Lolium multiflorum)
How it was run: as §2
For CCCC(=O)Oc1c(C)nn(C)c(=O)c1-c1c(-c2ccc(C(C)C)cc2)sc2cc(F)c(F)cc12 [5-006], the “Herbicidal effect by foliage application, K: Italian ryegrass” value was 0 (Herbicidal rate of 5% or less (almost no effect)).
In the case of Cc1nn(C)c(=O)c(-c2c(-c3ccc(C#N)cc3)sc3cc(Cl)c(Cl)cc23)c1O [5-049], the “Herbicidal effect by foliage application, K: Italian ryegrass” value is reported as 0 (Herbicidal rate of 5% or less (almost no effect)).
